The values that follow come from patent US20230373939A1 (VERTEX PHARMACEUTICALS INCORPORATED, priority 2020, published 2023).

As a reminder, the EC50 is the midpoint of the concentration-response curve.

For one assay, the target named is CFTR (Homo sapiens, UniProt P13569). Put plainly: Standard Ussing Chamber Assay for CFTR potentiator activity. The class given is cell-based. As to the method: tert-Butyl N-[(6R,12R)-6-benzyloxy-12-methyl-6,15-bis(trifluoromethyl)-13,19-dioxa-3,4,18-triazatricyclo[12.3.1.12,5]nonadeca-1(18),2,4,14,16-pentaen-17-yl]-N-tert-butoxycarbonyl-carbamate (8.6 g, 11.77 mmol) was dissolved in ethanol (172 mL) then the flask was cycled 3 times between vacuum/nitrogen. Treated the mixture with 10% Pd/C (50% water wet, 1.8 g of 5% w/w, 0.8457 mmol) then cycled 3 times between vacuum/nitrogen and 3 times between vacuum/hydrogen and then stirred vigorously under hydrogen (balloon) at room temperature for 18 h. The mixture was cycled 3 times between vacuum/nitrogen, filtered over Celite washing with ethanol and then the filtrate was evaporated to give 7.3 g of tert-butyl N-tert-butoxycarbonyl-N-[(6R,12R)-6-hydroxy-12-methyl-6,15-bis(trifluoromethyl)-13,19-dioxa-3,4,18-triazatricyclo[12.3.1.12,5]nonadeca-1(18),2,4,14,16-pentaen-17-yl]carbamate an off-white solid. 1H NMR and MS confirmed the expected product. CFTR modulatory activity was confirmed using a standard Ussing Chamber Assay for CFTR potentiator activity.
Sequence of CFTR (P13569 whole entry, species assumed): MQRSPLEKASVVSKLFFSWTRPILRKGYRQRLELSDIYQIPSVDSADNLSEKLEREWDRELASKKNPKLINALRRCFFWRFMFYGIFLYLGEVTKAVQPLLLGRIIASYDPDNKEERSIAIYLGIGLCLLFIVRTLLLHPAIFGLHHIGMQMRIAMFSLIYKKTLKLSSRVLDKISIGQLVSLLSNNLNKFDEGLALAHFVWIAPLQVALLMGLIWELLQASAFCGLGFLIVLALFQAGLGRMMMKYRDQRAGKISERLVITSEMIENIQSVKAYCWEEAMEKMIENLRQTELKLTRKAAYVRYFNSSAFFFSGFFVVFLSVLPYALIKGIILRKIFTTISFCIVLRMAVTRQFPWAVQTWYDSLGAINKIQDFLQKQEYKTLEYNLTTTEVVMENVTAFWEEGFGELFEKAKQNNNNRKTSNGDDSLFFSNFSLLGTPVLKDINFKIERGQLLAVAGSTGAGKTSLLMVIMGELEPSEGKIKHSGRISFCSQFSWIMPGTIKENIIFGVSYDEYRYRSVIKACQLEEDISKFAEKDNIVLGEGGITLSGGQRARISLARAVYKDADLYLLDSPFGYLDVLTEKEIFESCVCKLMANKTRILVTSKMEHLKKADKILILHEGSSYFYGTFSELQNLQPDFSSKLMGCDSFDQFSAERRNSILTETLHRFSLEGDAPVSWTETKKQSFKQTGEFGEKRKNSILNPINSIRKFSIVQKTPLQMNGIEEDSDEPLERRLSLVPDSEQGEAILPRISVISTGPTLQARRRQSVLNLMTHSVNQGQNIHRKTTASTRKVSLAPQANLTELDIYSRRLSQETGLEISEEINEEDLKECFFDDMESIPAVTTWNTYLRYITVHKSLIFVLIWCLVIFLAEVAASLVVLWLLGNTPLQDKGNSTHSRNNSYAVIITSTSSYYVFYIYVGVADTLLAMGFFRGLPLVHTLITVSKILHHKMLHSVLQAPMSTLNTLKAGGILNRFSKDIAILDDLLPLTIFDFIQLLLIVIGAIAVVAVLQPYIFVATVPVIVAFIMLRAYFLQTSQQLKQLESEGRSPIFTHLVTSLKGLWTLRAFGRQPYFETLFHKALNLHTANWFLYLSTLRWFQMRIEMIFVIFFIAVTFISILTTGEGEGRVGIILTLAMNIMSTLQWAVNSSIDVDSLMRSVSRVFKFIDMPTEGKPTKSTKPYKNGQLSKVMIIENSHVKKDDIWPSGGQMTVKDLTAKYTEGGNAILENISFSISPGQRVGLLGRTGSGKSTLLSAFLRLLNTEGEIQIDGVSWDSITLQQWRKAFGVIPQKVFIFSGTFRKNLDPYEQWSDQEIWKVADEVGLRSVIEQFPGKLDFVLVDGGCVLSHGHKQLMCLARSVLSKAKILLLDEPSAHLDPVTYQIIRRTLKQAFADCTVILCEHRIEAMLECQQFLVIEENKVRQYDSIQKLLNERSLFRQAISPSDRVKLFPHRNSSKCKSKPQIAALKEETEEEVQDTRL

The target of another assay is T1, F508del in NIH 3T3 cells (Homo sapiens, UniProt P13569, DEL508-508).
T1 construct: expressed in transfected cells
T1 sequence (P13569 with tags, fused parts or gaps DEL508-508): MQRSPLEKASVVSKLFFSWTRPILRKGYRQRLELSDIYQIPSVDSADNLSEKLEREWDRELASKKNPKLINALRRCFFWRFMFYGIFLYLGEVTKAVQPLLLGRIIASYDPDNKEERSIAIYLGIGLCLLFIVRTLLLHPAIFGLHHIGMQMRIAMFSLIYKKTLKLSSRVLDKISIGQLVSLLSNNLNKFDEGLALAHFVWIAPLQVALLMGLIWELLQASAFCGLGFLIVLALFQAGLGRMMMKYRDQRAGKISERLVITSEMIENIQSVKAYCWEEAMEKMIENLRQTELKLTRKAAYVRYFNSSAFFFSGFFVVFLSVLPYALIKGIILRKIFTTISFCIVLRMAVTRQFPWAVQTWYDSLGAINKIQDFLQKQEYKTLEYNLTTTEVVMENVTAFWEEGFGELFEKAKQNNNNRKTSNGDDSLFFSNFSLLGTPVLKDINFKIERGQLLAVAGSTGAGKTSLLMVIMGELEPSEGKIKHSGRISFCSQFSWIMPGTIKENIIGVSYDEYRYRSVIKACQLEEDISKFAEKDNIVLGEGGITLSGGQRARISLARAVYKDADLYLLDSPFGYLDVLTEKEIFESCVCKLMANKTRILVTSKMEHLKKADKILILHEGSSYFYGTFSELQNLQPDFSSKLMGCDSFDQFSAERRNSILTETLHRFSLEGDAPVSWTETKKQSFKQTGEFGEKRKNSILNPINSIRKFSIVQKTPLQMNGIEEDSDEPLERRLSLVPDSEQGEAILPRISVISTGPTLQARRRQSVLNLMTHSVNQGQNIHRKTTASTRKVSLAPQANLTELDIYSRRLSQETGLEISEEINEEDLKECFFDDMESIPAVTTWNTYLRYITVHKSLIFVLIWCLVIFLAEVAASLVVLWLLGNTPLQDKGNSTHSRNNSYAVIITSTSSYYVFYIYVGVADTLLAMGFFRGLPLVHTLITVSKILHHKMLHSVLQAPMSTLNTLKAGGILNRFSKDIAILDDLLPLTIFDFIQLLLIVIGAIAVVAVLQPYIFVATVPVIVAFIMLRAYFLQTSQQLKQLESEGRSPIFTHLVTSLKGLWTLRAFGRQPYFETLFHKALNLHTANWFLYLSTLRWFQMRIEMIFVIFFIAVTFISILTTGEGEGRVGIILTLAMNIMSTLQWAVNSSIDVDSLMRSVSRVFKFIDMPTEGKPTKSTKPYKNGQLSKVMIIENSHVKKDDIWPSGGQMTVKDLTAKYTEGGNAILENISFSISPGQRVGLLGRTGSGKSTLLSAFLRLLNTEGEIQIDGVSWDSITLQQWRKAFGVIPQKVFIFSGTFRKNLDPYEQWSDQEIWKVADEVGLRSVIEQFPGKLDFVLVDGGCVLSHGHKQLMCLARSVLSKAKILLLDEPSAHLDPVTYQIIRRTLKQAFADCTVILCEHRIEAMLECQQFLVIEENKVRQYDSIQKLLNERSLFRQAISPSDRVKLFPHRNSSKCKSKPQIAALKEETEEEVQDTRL
Put plainly: 3T3 assay: membrane potential optical assay for F508del correction. The class given is cell-based. The note with it: NIH 3T3 cells, F508del; for Emax: NIH3T3, read-out: 3T3 Max Activity (%); for EC50: read-out: 3T3 EC50. In short, it runs like this: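 NIH 3T3 mouse fibroblasts stably expressing F508del were incubated with corrector compounds at a range of concentrations for 16–24 h at 37 °C, then loaded with a voltage-sensing redistribution dye. Channel activity was read as membrane-potential change on FLIPR after a single addition of forskolin with a chloride-free (gluconate) bath creating a Cl⁻ gradient.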

As for `C[C@@H]1CCCCC[C@](O)(C(F)(F)F)C2=NN=C(O2)c2nc(c(C(F)(F)F)cc2N)O1` [(6R,12R)-17-Amino-12-methyl-6,15-bis(trifluoromethyl)-13,19-dioxa-3,4,18-triazatricyclo[12.3.1.12,5]nonadeca-1(18),2,4,14,16-pentaen-6-ol], the “CFTR modulatory activity (CFTR potentiator activity)” value on CFTR is reported as “confirmed”.

Turning to `Cc1cc(C)c(-n2nc(NS(=O)(=O)c3ccccc3)cc2-c2ccccc2Cl)c(C)c1` [Compound 58, N-[5-(2-chlorophenyl)-1-(2,4,6-trimethylphenyl)pyrazol-3-yl]benzenesulfonamide], at F508del in NIH 3T3 cells, the Emax was more than 60% and the EC50 is less than 1 µM.

For `CC1CN(c2nc(NS(=O)(=O)c3ccccc3)cc(Oc3ccccc3)n2)C(C)(C)C1` (stereo not shown) [Compound 129, N-[6-phenoxy-2-(2,2,4-trimethylpyrrolidin-1-yl)pyrimidin-4-yl]benzenesulfonamide], the Emax at F508del in NIH 3T3 cells is less than 30%.

As to `O=C(Nc1ccccc1)c1sc(NS(=O)(=O)c2ccccc2)nc1-c1ccccc1` [Compound 33, N,4-diphenyl-2-(phenylsulfonamido)thiazole-5-carboxamide], on F508del in NIH 3T3 cells, the Emax is less than 30%.

`COc1cccc(-c2cn(-c3cccc(Cl)c3)nc2NS(=O)(=O)c2ccccc2)c1` [Compound 91, N-[1-(3-chlorophenyl)-4-(3-methoxyphenyl)pyrazol-3-yl]benzenesulfonamide]: on F508del in NIH 3T3 cells, the Emax is 30 to 60% and the EC50 lay within 1 to 3 µM.
